Literature values as cited in US20110052690A1, “PROCESS FOR MANUFACTURE OF A MEDICAMENT WITH GRANULATION AND PAN COATING” (priority 2008, published 2011).
Where a name gives a salt, the structure may show the parent alone.

Conditions: plural daily dosing regime, compressed tablets

- patients experiencing nausea: about forty five
- patients in whom vomiting occurs: about seventeen
SMILES: COc1ccc(C(CN(C)C)C2(O)CCCCC2)cc1 (centres unmarked) [venlafaxine hydrochloride, 1-[(2-dimethylamino)-1-(4-methoxyphenyl)ethyl] cyclohexanol]
